From patent US11440904B2, “Substituted pyrimidines, pharmaceutical compositions and therapeutic methods thereof” (priority 2017, dated 2022)
Values joined by “and” are separate entries in the source; they are usually repeats but may differ in a detail not shown here. Equal values may be shown once.

Experiments:
BTK wt = BTK wt (Homo sapiens (Human), UniProt Q06187); experiment: 33P ATP HotSpot kinase assay, BTK wt; type: biochemical; details: 10 μM ATP
Text: (§1) (See, e.g., Ma, et al, 2008 Expert Opin Drug Discov. 3(6): 607-621.)

BMX = BMX (Homo sapiens (Human), UniProt P51813); experiment: 33P ATP HotSpot kinase assay, BMX; type: biochemical; details: 10 μM ATP
Protocol: as §1
(§2) Each of Compound-1 to Compound-24 was measured for its inhibitory activity on TEC family kinases, BMX and ITK. The measurement was carried out in the same process as described above, BMX, ITK enzymes were used.

[1] = target: BTK phosphorylation at tyrosine 223 (Homo sapiens (Human), UniProt Q06187); experiment: Immunoblot analysis of phospho-BTK(Y223) in Ramos cells; type: cell-based; details: 1 hr treatment, anti-IgM stimulation, western blot
Protocol: Ramos cells were cultured in RPMI-1640 medium with 10% fetal bovine serum (FBS) and 1% penicillin/streptomycin (Gibco BRL). Before the assay, Ramos cells were counted and seeded at 1×10^6 cells/mL, cultured overnight in RPMI-1640 medium with 10% FBS, the cells were centrifuged at 950 rpm for 10 min., then 1˜2×10^6 cells were split into each tube in 300 μL medium. The cells were treated with certain compounds of Compound 1-24 at 0˜3 μM for 1 hr. in 37° C., then the cells were stimulated with 10 μg/mL of anti-IgM (BioLegend) for 5 min., followed by 3 min. spin at 2000 rpm. After aspirating the supernatant, 60 μL of RIPA lysis buffer (50 mM Tris-HCl, 1 mM EDTA, 1% NP-40, 0.5% sodium deoxycholate, and 0.1% SDS, pH 7.4, 150 mM NaCl, 1 mM Na3VO4) was added to the cell pellet to lyse the cells on ice for 30 min. After spin at 10,000 rpm for 5 min., 60 μL of the cell lysate was transferred to a fresh tube, and 20 μL of 4× LDS buffer was added to the tube. The samples were boiled on a 100° C. heat block for 10 min. 25 μL lysate was loaded on to SDS-PAGE gel (NuPAGE™ Novex™ 4-12% Bis-Tris Midi Protein Gels, cat. no. WG1402BOX, ThermoFisher) for western blotting analysis per the manufacturer's instructions. Antibodies used for immunoblot analysis include Btk and p-Btk(Y223) (cat. no. 3553 and 5082; Cell Signaling Technology, Beverly, Mass.). p-Btk(Y223) (cat. no. GTX61791; GeneTex, Inc., Irvine, Calif.). Membranes were detected using infrared fluorescence dye (IRDye® 800CW Donkey anti-Rabbit IgG (H+L), cat. no. P/N 925-32213; IRDye® 680RD Donkey anti-Mouse IgG (H+L), cat. no. P/N 925-68072 and scanned on a LiCor Odyssey scanner (LiCor Biosciences, Lincoln, Nebr.).

ERK1 kinase = ERK1 kinase (Homo sapiens (Human), UniProt P27361); experiment: 33P ATP HotSpot kinase assay, ERK1; type: biochemical; details: 10 μM ATP
Protocol: as §1
Certain compounds of Compound-1 to Compound-24 were measured for its inhibitory activity on ERK1 kinase. The measurement was carried out in the same process as described above, ERK enzyme was used.

FAK = FAK (Homo sapiens (Human), UniProt Q05397); experiment: 33P ATP HotSpot kinase assay, FAK; details: read-out: IC50 FAK, 10 μM ATP
EGFR wt = EGFR wt (Homo sapiens (Human), UniProt P00533); experiment: 33P ATP HotSpot kinase assay, EGFR wt; type: biochemical; details: 10 μM ATP
Protocol: Then, Kinase assays were performed using the “HotSpot” assay platform.
Briefly, specific kinase/substrate pairs along with required cofactors were prepared in reaction buffer; 20 mM Hepes pH 7.5, 10 mM MgCl2, 1 mM EGTA, 0.02% Brij35, 0.02 mg/ml BSA, 0.1 mM Na3VO4, 2 mM DTT, 1% DMSO. Compounds were delivered into the reaction, followed about 20 minutes later by addition of a mixture of ATP (Sigma, St. Louis Mo.) and ^33P ATP (Perkin Elmer, Waltham Mass.) to a final concentration of 10 μM.
Reactions were carried out at room temperature for 120 min, followed by spotting of the reactions onto P81 ion exchange filter paper (Whatman Inc., Piscataway, N.J.). Unbound phosphate was removed by extensive washing of filters in 0.75% phosphoric acid. […] IC50 values and curve fits were obtained using Prism (GraphPad Software).

MDA-MB-231 cells = experiment: Cancer cell growth inhibition, MDA-MB-231; type: cell-based; details: Homo sapiens, 72 hr, cell viability
Protocol: (§3) In order to test certain compounds of Compounds 1 to 24 for cancer cell growth inhibition, a leukemia cancer cell line EOL-1, and triple negative breast cancer cell line MDA-MB-231 was used.
(§4) EOL-1 and MDA-MB-231 cells were cultured in a RPMI-1640 cell culture medium supplemented with 10% fetal bovine serum (FBS) and 1% penicillin/streptomycin (Gibco BRL).
(§5) The cancer cell lines stored in a liquid nitrogen tank were each quickly thawed at 37° C. water bath, and centrifuged to remove the DMSO in the freezing medium. The resulting cell pellet was mixed with a culture medium, incubated in a culture flask at 37° C. under 5% CO2 for 2 to 3 days. The EOL-1 cells were sub-cultured by 1:5˜10 dilution in fresh culture medium. For MD-MB-231 cells, the culture medium was removed and the remaining cells were washed with PBS (Phosphate Buffered Saline) and trypsinized by trypsin-EDTA. The detached cells were sub-cultured by 1:5˜10 dilution in fresh culture medium.
(§6) For the cell growth inhibition assay, the cells were seeded in 96-well cell culture plates at 5×10^4 cells/well for EOL-1 and 5×10^3 cells/well for MDA-MB-231 cells in 50 μL and incubated at 37° C. under 5% CO2 for 3 to 6 hr. before the compounds were added.
(§7) Certain compounds of Compounds 1-24 were dissolved in dimethylsulfoxide (DMSO) to a concentration of 10 mM. The DMSO solution containing test compound was diluted with a culture medium to a final concentration of 600 μM, and then diluted 100 times to 6 μM as top dose followed by 1:3 serial dilutions, and then add 50 μL diluted compounds to the 50 μL cells, with a final top dose at 3 μM and the plate was incubated at 37° C. under 5% CO2 for 72 hr. The cell viability was determined by Cell Meter™ Fluorimetric Cell Cytotoxicity Assay Kit (AAT Bioquest) according to the manufacturer's instructions. Briefly, thaw and warm up the Assay Solution (Component A) to 37° C., and mix it thoroughly. Add 20 μL/well (96-well plate) of Assay Solution (Component A). Mix the reagents by shaking the plate gently for 30 seconds. Incubate the cells in a 37° C., 5% CO2 incubator for 1-24 hr., protected from light. Monitor the fluorescence intensity (bottom read) at Ex/Em=540/590 nm. Alternatively, read the O.D. at 570 nm (the reference wavelength should be 600 nm) to determine the cell viability in each well.

ITK = ITK (Homo sapiens (Human), UniProt Q08881); experiment: 33P ATP HotSpot kinase assay, ITK; type: biochemical; details: 10 μM ATP
Protocol: as §1, §2

[2] = tested on: ERK phosphorylation at T202/Y204; experiment: Cell-based ERK1/2 (T202/Y204) phosphorylation ELISA in EOL-1 cells; details: 3 hr or 15 hr treatment, read-out: EC50 phospho-ERK1/2 (T202/Y204)
Protocol: EOL-1 cells were cultured in RPMI-1640 medium with 10% fetal bovine serum (FBS) and 1% penicillin/streptomycin (Gibco BRL). Before the assay, EOL-1 cells were counted and seeded at 1×10^6 cells/well in a 6-well plate, cultured overnight in RPMI-1640 medium with 10% FBS. The cells were treated with certain compounds of Compounds 1-24 at 0˜3 μM for 3 hr. or 15 hr. at 37° C., then the cells were harvested, followed by 5 min. spin at 2000 rpm. After aspirating the supernatant, the cells were washed with cold PBS, span again, then 100 μL of RIPA lysis buffer (50 mM Tris-HCl, 1 mM EDTA, 1% NP-40, 0.5% sodium deoxycholate, and 0.1% SDS, pH 7.4, 150 mM NaCl, 1 mM Na3VO4) was added to the cell pellet to lyse the cells on ice for 30 min. After spin at 12,000 rpm for 5 min., 90 μL of the cell lysate was transferred to a fresh tube.
For an enzyme-linked immunosorbent assay (ELISA) assay, 10 μL of the lysate was used for p-ERK1/2 (T202/Y204) elisa assay. ELISA was done using the ERK 1/2 (pT202/Y204 +Total) ELISA Kit (Abcam, ab176660) according to the manufacturer's instructions. Specifically, add 50 μL of all samples or standards to appropriate wells. Add 50 μL of the Antibody Cocktail to each well. Seal the plate and incubate for 1 hr. at r.t. on a plate shaker set to 400 rpm. Wash each well with 3×350 μL 1× Wash Buffer PT. […] This is an endpoint reading.

EOL-1 cells = experiment: Cancer cell growth inhibition, EOL-1; type: cell-based; details: Homo sapiens, EOL1, 72 hr, cell viability
Protocol: as §3, §4, §5, §6, §7

[3] = target: FAK phosphorylation at tyrosine 397 (Homo sapiens (Human), UniProt Q05397); experiment: Cell-based FAK(Y397) phosphorylation ELISA in PC3 cells; details: 1 hr treatment, read-out: EC50 phospho-FAK(Y397)
Sequence of FAK phosphorylation at tyrosine 397 (Q05397 whole entry): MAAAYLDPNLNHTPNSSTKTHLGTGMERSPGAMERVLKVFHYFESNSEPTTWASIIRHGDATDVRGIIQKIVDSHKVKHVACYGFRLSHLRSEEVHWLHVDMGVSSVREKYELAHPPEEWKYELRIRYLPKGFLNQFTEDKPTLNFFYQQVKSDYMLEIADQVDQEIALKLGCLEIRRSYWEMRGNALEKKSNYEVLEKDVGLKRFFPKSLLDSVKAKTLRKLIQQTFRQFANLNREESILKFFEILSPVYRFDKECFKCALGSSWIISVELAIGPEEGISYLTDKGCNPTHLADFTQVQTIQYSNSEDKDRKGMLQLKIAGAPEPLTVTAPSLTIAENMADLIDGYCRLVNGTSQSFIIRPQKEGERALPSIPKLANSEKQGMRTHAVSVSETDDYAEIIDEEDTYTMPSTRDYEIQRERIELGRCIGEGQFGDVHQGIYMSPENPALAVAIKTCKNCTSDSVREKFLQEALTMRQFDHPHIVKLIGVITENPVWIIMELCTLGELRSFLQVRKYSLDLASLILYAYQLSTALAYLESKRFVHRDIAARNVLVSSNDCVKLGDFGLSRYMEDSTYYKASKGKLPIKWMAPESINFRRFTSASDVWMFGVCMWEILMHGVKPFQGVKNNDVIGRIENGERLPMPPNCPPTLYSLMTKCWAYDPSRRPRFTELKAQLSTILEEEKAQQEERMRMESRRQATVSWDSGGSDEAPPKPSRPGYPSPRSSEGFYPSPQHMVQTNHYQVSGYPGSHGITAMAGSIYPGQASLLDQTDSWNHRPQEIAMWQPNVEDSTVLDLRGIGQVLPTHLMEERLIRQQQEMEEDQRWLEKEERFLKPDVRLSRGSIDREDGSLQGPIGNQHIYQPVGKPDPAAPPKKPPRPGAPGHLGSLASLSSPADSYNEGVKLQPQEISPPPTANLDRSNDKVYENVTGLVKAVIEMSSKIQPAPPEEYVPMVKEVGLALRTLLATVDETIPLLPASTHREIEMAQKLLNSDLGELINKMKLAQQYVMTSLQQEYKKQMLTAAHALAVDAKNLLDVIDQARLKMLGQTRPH
Protocol: After aspirating the supernatant, 100 μL of RIPA lysis buffer (50 mM Tris-HCl, 1 mM EDTA, 1% NP-40, 0.5% sodium deoxycholate, and 0.1% SDS, pH 7.4, 150 mM NaCl, 1 mM Na3VO4) was added to the cell pellet to lyse the cells on ice for 30 min. After spin at 12,000 rpm for 5 min., 90 μL of the cell lysate was transferred to a fresh tube.
For an enzyme-linked immunosorbent assay (ELISA) assay, 10 μL of the lysate was used for p-FAK(Y397) elisa assay. ELISA was done using the FAK [pY397] Phospho-ELISA Kit (ThermoFisher Scientific, KHO0441) according to the manufacturer's instructions. […] During the first incubation, 50 μL standards of known p-FAK (Y397) content and compound treated samples (10 μL lysate) plus 40 μL diluent buffer were pipetted into the wells and let the p-FAK antigen standards and samples bind to the immobilized (capture) antibody on the plate, a rabbit antibody specific for p-FAK (Y397) 50 μL/well was added to the wells, this antibody serves as a detection antibody by binding to the p-FAK protein during a 3 hr. incubation at room temperature. After washing 4 times, a horseradish peroxidase labeled anti-rabbit IgG was added. This binds to the detection antibody. After a 30 min. incubation and washing to remove all the unbound enzyme, a substrate solution (TMB) was added, which was acted upon by the bound enzyme to produce color.

Sequence of EGFR wt (P00533 25-1210): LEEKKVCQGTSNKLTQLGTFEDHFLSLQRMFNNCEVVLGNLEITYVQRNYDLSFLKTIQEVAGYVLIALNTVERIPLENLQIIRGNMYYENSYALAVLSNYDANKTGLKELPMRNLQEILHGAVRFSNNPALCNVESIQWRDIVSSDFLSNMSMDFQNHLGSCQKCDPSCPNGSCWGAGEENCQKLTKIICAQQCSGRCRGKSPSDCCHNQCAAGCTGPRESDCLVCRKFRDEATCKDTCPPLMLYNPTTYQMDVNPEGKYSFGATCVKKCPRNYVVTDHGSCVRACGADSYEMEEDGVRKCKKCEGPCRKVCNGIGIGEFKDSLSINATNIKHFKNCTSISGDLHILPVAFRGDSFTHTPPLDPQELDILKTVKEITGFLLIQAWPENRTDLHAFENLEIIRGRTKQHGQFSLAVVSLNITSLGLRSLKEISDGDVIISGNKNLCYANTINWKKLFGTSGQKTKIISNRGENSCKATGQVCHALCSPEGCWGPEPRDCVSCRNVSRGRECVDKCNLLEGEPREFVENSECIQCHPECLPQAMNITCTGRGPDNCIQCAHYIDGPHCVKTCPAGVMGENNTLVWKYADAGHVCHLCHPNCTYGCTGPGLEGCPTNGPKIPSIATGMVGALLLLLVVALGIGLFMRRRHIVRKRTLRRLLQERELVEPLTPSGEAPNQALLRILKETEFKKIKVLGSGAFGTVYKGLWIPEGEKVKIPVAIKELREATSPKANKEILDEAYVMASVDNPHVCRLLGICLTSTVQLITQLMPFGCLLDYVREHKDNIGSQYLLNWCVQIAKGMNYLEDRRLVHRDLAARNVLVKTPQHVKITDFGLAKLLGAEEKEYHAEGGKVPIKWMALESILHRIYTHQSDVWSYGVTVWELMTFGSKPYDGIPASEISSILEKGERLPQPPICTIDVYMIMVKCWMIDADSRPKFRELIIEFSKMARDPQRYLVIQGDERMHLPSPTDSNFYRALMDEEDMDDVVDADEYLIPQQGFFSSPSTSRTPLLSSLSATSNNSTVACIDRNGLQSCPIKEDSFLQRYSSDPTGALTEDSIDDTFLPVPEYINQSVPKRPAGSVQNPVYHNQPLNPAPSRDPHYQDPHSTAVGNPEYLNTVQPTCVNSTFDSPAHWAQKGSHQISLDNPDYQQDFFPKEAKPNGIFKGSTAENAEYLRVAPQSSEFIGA
Sequence of ITK (Q08881 whole entry): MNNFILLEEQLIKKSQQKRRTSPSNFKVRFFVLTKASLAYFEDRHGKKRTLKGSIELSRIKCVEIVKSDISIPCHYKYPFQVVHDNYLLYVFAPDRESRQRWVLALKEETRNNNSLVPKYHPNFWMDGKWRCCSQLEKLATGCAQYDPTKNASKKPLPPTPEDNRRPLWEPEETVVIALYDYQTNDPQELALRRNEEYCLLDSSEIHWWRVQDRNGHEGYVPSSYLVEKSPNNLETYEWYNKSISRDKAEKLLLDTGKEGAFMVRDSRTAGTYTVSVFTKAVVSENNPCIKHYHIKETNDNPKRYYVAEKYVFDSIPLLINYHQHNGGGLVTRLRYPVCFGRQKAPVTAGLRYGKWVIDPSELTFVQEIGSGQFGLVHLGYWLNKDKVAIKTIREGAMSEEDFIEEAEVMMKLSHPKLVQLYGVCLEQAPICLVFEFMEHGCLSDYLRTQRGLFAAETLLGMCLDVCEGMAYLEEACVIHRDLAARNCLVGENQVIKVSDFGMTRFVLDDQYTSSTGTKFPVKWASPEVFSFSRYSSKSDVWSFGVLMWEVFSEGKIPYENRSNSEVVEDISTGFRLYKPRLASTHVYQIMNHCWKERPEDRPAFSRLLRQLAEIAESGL
Sequence of ERK1 kinase (P27361 whole entry): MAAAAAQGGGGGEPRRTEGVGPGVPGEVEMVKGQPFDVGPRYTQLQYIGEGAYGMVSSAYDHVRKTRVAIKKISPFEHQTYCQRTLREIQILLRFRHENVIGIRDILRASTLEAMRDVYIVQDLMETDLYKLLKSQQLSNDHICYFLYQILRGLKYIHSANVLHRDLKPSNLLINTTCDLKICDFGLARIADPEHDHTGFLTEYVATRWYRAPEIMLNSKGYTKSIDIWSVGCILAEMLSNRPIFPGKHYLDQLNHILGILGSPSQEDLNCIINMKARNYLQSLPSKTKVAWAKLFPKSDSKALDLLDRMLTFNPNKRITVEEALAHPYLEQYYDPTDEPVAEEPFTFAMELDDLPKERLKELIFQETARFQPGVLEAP
Sequence of BMX (P51813 whole entry): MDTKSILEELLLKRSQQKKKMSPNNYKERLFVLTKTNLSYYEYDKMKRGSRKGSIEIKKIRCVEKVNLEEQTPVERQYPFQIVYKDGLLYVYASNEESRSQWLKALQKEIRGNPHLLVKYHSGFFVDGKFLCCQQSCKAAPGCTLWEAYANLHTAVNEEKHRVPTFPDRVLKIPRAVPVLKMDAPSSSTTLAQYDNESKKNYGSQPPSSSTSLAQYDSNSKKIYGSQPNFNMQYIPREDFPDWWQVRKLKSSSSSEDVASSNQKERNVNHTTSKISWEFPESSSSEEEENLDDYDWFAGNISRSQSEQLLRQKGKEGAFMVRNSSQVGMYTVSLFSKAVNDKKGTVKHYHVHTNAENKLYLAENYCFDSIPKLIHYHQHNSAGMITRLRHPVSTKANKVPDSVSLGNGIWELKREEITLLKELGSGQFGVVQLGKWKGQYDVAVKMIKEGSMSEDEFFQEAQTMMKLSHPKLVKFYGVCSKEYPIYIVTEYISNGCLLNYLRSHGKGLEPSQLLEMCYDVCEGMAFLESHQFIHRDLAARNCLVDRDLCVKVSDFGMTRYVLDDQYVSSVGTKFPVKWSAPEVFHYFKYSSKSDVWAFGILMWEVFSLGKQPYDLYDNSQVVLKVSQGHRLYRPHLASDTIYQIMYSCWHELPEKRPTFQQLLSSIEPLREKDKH
Sequence of FAK (Q05397 whole entry): as the sequence (Q05397 whole entry) above
Sequence of BTK wt (Q06187 whole entry): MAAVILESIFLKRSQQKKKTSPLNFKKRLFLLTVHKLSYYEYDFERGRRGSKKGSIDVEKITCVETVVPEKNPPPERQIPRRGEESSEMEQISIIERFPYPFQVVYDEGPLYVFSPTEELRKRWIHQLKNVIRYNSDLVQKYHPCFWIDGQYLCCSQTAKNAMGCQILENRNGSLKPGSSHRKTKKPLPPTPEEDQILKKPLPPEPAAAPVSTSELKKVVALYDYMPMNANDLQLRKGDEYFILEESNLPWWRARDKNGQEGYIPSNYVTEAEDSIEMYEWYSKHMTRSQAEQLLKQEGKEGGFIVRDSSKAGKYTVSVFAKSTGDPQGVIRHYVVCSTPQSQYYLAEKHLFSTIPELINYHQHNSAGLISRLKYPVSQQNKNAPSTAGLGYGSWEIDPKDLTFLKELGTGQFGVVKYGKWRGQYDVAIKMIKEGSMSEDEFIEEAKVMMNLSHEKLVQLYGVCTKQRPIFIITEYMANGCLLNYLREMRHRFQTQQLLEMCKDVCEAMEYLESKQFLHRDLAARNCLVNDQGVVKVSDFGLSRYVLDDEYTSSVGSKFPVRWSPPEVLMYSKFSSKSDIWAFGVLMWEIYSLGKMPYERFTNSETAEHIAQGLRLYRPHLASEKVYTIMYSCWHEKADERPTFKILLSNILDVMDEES
Sequence of BTK phosphorylation at tyrosine 223 (Q06187 whole entry): as above

**Q.** What does the source list for `C=CC(=O)Nc1ccccc1Nc1nc(Nc2ccc3c(c2)OCCOCCOCCO3)nc2[nH]cnc12` [Compound-11, N-[2-[[2-(2,5,8,11-tetraoxabicyclo[10.4.0]hexadeca-1(12),13,15-trien-14-ylamino)-9H-purin-6-yl]amino]phenyl]prop-2-enamide]?
**A.** IC50 (BTK wt): 2.33 nM; IC50 (BMX): 1.21 nM; EC50 [1]: 100 to 1000 nM; IC50 (ERK1 kinase): 6.23 nM; IC50 (FAK): 17.4 nM; IC50 (EGFR wt): 1900 nM and > 1000 nM; IC50 (MDA-MB-231 cells): 300 nM; IC50 (ITK): 270 nM; EC50 [2]: < 100 nM; IC50 (EOL-1 cells): 25 nM; EC50 [3]: < 100 nM
